Measurements reported in patent US5534260A, “Percutaneous drug delivery system” (priority 1994, dated 1996).
Several values for one entry are separate records, joined by “and”; a condition that tells them apart may be missing. Identical values can stand only once. Entries after “also recorded” stand apart in the source; their conditions may differ. Like-named read-outs stand apart in the source and are kept apart here.

Key:
[1] = Effect of non-enzyme components in admixture with papain on penetration of 14C-TEAB (Example IV); settings: 14C-TEAB through pretreated skin (n = 1 for components alone, n = 2 combinations, n = 3 papain 0.0465 mg/ml 24 hours)
[2] = Effect of pH on drug penetration through normal untreated hairless mouse skin (Example V A); type: in vitro ADME; settings: for P (permeability): mouse
[3] = Effect of pH on drug penetration through hairless mouse skin pretreated with papain (Example V B); type: in vitro ADME
Text: B. Effect of pH on drug penetration through hairless mouse
skin Pretreated with sigma papain of concentration 0.093

[4] = Fourier Transform Infrared spectroscopy of stratum corneum; parameters: species or system mouse; settings: for Absorbance in protein areas, peak position: Table I
Experimental: A. Comparisons of normal stratum corneum (from mouse skin) to stratum corneum treated with a 0.09% concentration of papain for 24 hours was performed using Fourier Transform Infrared spectroscopy (FTIR). […] It is postulated that a shift from a random form of protein to the more organized beta sheet structure occurs. The alpha-helix structures of skin protein could be fractionated, uncoiled, or both.
A comparison of symmetric and asymmetric CH stretch bands was then made. These two bands represent lipid structure and would show any changes in the stratum corneum lipids caused by the papain.
B. Azone™ was tested as a permeation enhancer with and without the presence of papain.

[5] = in vitro; settings: mouse
[6] = Penetration of polypeptides through papain-pretreated mouse skin, SDS-PAGE; type: in vitro ADME; settings: for fragmentation of diffused polypeptide: diffused through papain treated skin, SDS-PAGE
Text: After papain skin treatment pursuant to Example III.1 above, polypeptides were diffused through the pretreated mouse skin using the same concentration and pH values for each test. Pure buffer solution was also diffused through the pretreated skin of the mouse to determine if any endogenous proteins diffused into the diffusate.
Comparisons of solutions of non-diffused polypeptides, diffused polypeptides and diffused buffer solutions were made using gel electrophoresis. The system used for these determinations was sodium dodecyl sulfate polyacrylamide gel electrophoresis (SDS-PAGE), a procedure well-known in the art. These comparisons determined if fragmentation of the diffused polypeptide molecules occurred.
A series of polypeptides of various molecular weights were studied.

[7] = mouse
[8] = pH 5.9, sigma papain 0.093 mg/ml for 24 hours
[9] = pH 6.6, sigma papain 0.093 mg/ml for 24 hours
[10] = pH 7.4, sigma papain 0.093 mg/ml for 24 hours
[11] = pH 8.0, sigma papain 0.093 mg/ml for 24 hours
[12] = TEAB, pretreated with papain 0.010 mg/0.108 ml (0.093 mg/ml)
[13] = TEAB, pretreated with papain 0.170 mg/0.602 ml (0.278 mg/ml)
[14] = TEAB, pretreated with papain 0.170 mg/0.200 ml ([…])

CCCCCCCC/C=C\CCCCCCCCO [10% oleyl alcohol, oleyl alcohol]
J (flux) [1]: 1.49 × 10^-4 mg cm^-2 s^-1

CC(=O)OCC[N+](C)(C)C.[Cl-] [Acetylcholine Chloride, acetylcholine chloride]
J (flux) ([2]; pH 5.9): 5.83 × 10^-6 mg/cm^2 /sec
J (flux) ([2]; pH 6.6): 5.21 × 10^-6 mg/cm^2 /sec
J (flux) ([2]; pH 7.4): 6.41 × 10^-6 mg/cm^2 /sec
J (flux) ([2]; pH 8.0): 9.32 × 10^-6 mg/cm^2 /sec
E (enhancement) [3, 8]: 103.09
J (flux) [3, 8]: 6.00 × 10^-4 mg/cm^2 /sec
P (permeability) [3, 8]: 3 ×10⁻⁶ cm/s
E (enhancement) [3, 9]: 149.23
J (flux) [3, 9]: 7.77 × 10^-4 mg/cm^2 /sec
P (permeability) [3, 9]: 3.88 ×10⁻⁶ cm/s
E (enhancement) [3, 10]: 100.94
J (flux) [3, 10]: 6.46 × 10^-4 mg/cm^2 /sec
P (permeability) [3, 10]: 3.23 ×10⁻⁶ cm/s
E (enhancement) [3, 11]: 67.38
J (flux) [3, 11]: 6.28 × 10^-4 mg/cm^2 /sec
P (permeability) [3, 11]: 3.14 ×10⁻⁶ cm/s

C=CCc1ccccc1OCC(O)CNC(C)C (stereo not shown) [Alprenolol]
P (permeability) ([2]; pH 5.9): 0.0536 ×10⁻⁶ cm/s
P (permeability) ([2]; pH 7.4): 0.184 ×10⁻⁶ cm/s
P (permeability) ([2]; pH 8): 0.21 ×10⁻⁶ cm/s
J (flux) ([2]; pH 5.9): 5.36 × 10^-7 mg/cm^2 /sec
J (flux) ([2]; pH 6.6): 7.74 × 10^-7 mg/cm^2 /sec
J (flux) ([2]; pH 7.4): 1.84 × 10^-6 mg/cm^2 /sec
J (flux) ([2]; pH 8): 2.10 × 10^-6 mg/cm^2 /sec
P (permeability) ([3]; mouse, pH 5.9): 1.2 ×10⁻⁶ cm/s
P (permeability) ([3]; mouse, pH 6.6): 1.33 ×10⁻⁶ cm/s
P (permeability) ([3]; mouse, pH 7.4): 1.32 ×10⁻⁶ cm/s
P (permeability) ([3]; mouse, pH 8): 1.65 ×10⁻⁶ cm/s
E (enhancement) [3, 8]: 22.39
E (enhancement) [3, 9]: 17.18
E (enhancement) [3, 10]: 7.17
E (enhancement) [3, 11]: 7.86

CCCCCCCCCCCCN1CCCCCC1=O [Azone, 1-n-dodecylazacycloheptan-2-one]
Absorbance in protein areas, peak position ([4]; untreated SC 1244): 1244.5 cm⁻¹
Absorbance in protein areas, peak position ([4]; untreated SC 1267): 1267.4 cm⁻¹
Absorbance in protein areas, peak position ([4]; untreated SC 1295): 1296.6 cm⁻¹
Absorbance in protein areas, peak position ([4]; untreated SC 1400.5): 1402 cm⁻¹
Absorbance in protein areas, peak position ([4]; untreated SC 1456): 1461.8 cm⁻¹
Absorbance in lipid areas, symmetric CH peak position ([4]; Table II, untreated 2848.3): 2850 cm⁻¹
Absorbance in lipid areas, asymmetric CH peak position ([4]; Table II, untreated 2916.5): 2920 cm⁻¹
Length of the 70% line, symmetric CH ([4]; Table III, untreated 8.6): 11.4 cm⁻¹
Length of the 70% line, asymmetric CH ([4]; Table III, untreated 17.5): 27.2 cm⁻¹
Asymm CH ([4]; Table VII, exposed SC): 2916.5 cm⁻¹
Symm CH ([4]; Table VII, exposed SC): 2848.3 cm⁻¹
Symm 70% line ([4]; Table VII, normal SC 8.6): 11.4 cm⁻¹
Asymm 70% line ([4]; Table VII, normal SC 17.5): 27.2 cm⁻¹
change in lipid structure / CH stretch bands of stratum corneum ([4]; in words, listed as Azone™): lengthening of both symmetric and asymmetric CH stretch lines but did not change their peak positions and 70% line lengthened
change in protein FTIR areas of stratum corneum ([4]; in words, listed as Azone™): did not change protein FTIR areas; also recorded: did not significantly effect the protein
change in protein FTIR areas of stratum corneum ([4]; in words, listed as azone): No significant changes occurred in the protein areas

CC(=O)[C@H]1CC[C@H]2[C@@H]3CCC4=CC(=O)CC[C@]4(C)[C@H]3CC[C@]12C [Progesterone]
J (flux) ([2]; pH 5.9): 2.30 × 10^-7 mg/cm^2 /sec
J (flux) ([2]; pH 6.6): 2.34 × 10^-7 mg/cm^2 /sec
J (flux) ([2]; pH 7.4): 2.34 × 10^-7 mg/cm^2 /sec and 2.92 × 10^-6 mg/cm^2 /sec
J (flux) ([2]; pH 8.0): 3.09 × 10^-6 mg/cm^2 /sec
E (enhancement) [3, 8]: 1.25
J (flux) [3, 8]: 2.88 × 10^-7 mg/cm^2 /sec
E (enhancement) [3, 9]: 1.50
J (flux) [3, 9]: 3.51 × 10^-7 mg/cm^2 /sec
E (enhancement) [3, 10]: 1.17
J (flux) [3, 10]: 2.73 × 10^-7 mg/cm^2 /sec
E (enhancement) [3, 11]: 1.17
P (permeability) [3, 11]: 0.289 ×10⁻⁶ cm/s and 3.61 ×10⁻⁶ cm/s

CC[N+](CC)(CC)CC.[Br-] [TEAB, tetraethylammonium bromide]
P (permeability) (mouse): 0.0254 ×10⁻⁶ cm/s
Papp [5]: 0.00495 ×10⁻⁶ cm/s

carbonic anhydrase: Carbonic anhydrase, MW 29,000
fragmentation of diffused polypeptide [6]: fractionated during the permeation process
breakdown of molecule on exposure to papain treated skin without diffusion ([6]; donor solution of the diffusion cell): no change or breakdown of the molecule

dioxolane [2% dioxolane]
P (permeability) [7]: 0.00521 ×10⁻⁶ cm/s

insulin: Insulin (Regular, Bovine), MW 6,000
fragmentation of diffused polypeptide [6]: determination of molecular fragmentation due to the permeation would be very difficult if not impossible

lysozyme: Lysozyme, MW 14,400
fragmentation of diffused polypeptide [6]: no significant difference in molecular size. The molecule remained intact and did not break apart

B1: Sigma papain: papain from Sigma Chemical (protein, UniProt P00784 134-345, looked up)
Papain: IPEYVDWRQKGAVTPVKNQGSCGSCWAFSAVVTIEGIIKIRTGNLNEYSEQELLDCDRRSYGCNGGYPWSALQLVAQYGIHYRNTYPYEGVQRYCRSREKGPYAAKTDGVRQVQPYNEGALLYSIANQPVSVVLEAAGKDFQLYRGGIFVGPCGNKVDHAVAAVGYGPNYILIKNSWGTGWGENGYIRIKRGTGNSYGVCGLYTSSFYPVKN
J (flux) [12]: 6.87 × 10^-4 mg/cm^2 /sec
P (permeability) [12]: 0.85 ×10⁻⁶ cm/s
J (flux) [13]: 1.46 × 10^-3 mg/cm^2 /sec
P (permeability) [13]: 1.81 ×10⁻⁶ cm/s

B2: Allergan papain: papain contained in a contact lens cleaning product (tablets for dissolution in water) wherein activators are included (protein, UniProt P00784 134-345, looked up)
Papain: B1 Papain
modifications: contact lens cleaning tablet with activators
J (flux) [14]: 1.04 × 10^-3 mg/cm^2 /sec
P (permeability) [14]: 1.29 ×10⁻⁶ cm/s
